Laboratory results taken from patent publication US9980943B2, “Methods of treating muscular dystrophy” (BOARD OF REGENTS OF THE NEVADA SYSTEM OF HIGHER EDUCATION, …, priority 2013, dated 2018).

How the values were obtained:
Type in all cases: cell-based, mouse
[1] = tested on: α7 integrin (LacZ reporter in α7βgal+/− myoblasts); assay: Myoblast α7+/LacZ integrin FDG assay (Burkin assay in myoblasts, 96-well); conditions: α7+/LacZ myoblasts, 96-well; for fold induction at 0.5 µM / fold induction at 1 µM / fold induction at 5 µM / fold induction at 10 µM / fold induction at 20 µM / fold induction at 40 µM: Mus musculus, Myoblast, 48 h, read-out: Burkin Assay in Myoblasts, value relative to DMSO
[2] = tested on: α7 integrin (LacZ reporter in α7+/LacZ myotubes); assay: Myotube α7 integrin FDG assay (Burkin assay in myotubes, 96-well); conditions: myotubes; for fold induction at 0.5 µM / fold induction at 1 µM / fold induction at 5 µM / fold induction at 10 µM / fold induction at 20 µM / fold induction at 40 µM: Mus musculus, Myotube, read-out: Burkin Assay in Myotubes (signal relative to DMSO)
[3] = tested on: β-galactosidase in CMV-LacZ C2C12 myotubes; assay: CMV-LacZ secondary screen in C2C12 myotubes (β-Gal stabilizing assay); conditions: for CMV-LACZ in Myotubes (β-galactosidase activity relative to DMSO): CMV-LacZ C2C12 myotubes, 96-well format
In short: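 First, C2C12 myoblasts were transfected with a linearized CMV-LACZ vector and clonal lines selected by FDG β-gal assay. Then cells were exposed to compounds at 0.5, 1, 5, 10, 20 and 40 μM in 96-well format, two replicates each, and β-gal measured.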

[4] = 5 uM, C2C12 CMV-LacZ myotubes, fold relative to DMSO
[5] = 10 uM, C2C12 CMV-LacZ myotubes, fold relative to DMSO
[6] = 20 uM, C2C12 CMV-LacZ myotubes, fold relative to DMSO
[7] = 40 uM, C2C12 CMV-LacZ myotubes, fold relative to DMSO

SMILES | Burkin Assay in Myoblasts, value relative to DMSO ([1]; 0.5 uM) | Burkin Assay in Myoblasts, value relative to DMSO ([1]; 1 uM) | Burkin Assay in Myoblasts, value relative to DMSO ([1]; 5 uM) | Burkin Assay in Myoblasts, value relative to DMSO ([1]; 10 uM) | Burkin Assay in Myoblasts, value relative to DMSO ([1]; 20 uM) | Burkin Assay in Myoblasts, value relative to DMSO ([1]; 40 uM) | Burkin Assay in Myotubes (signal relative to DMSO) ([2]; 0.5 uM) | Burkin Assay in Myotubes (signal relative to DMSO) ([2]; 1 uM) | Burkin Assay in Myotubes (signal relative to DMSO) ([2]; 5 uM) | Burkin Assay in Myotubes (signal relative to DMSO) ([2]; 10 uM) | Burkin Assay in Myotubes (signal relative to DMSO) ([2]; 20 uM) | Burkin Assay in Myotubes (signal relative to DMSO) ([2]; 40 uM) | CMV-LACZ in Myotubes, signal relative to DMSO [3, 4] | CMV-LACZ in Myotubes, signal relative to DMSO [3, 5] | CMV-LACZ in Myotubes, signal relative to DMSO [3, 6] | CMV-LACZ in Myotubes, signal relative to DMSO [3, 7] | CMV-LACZ in Myotubes (β-galactosidase activity relative to DMSO) ([3]; 5 uM) | CMV-LACZ in Myotubes (β-galactosidase activity relative to DMSO) ([3]; 10 uM) | CMV-LACZ in Myotubes (β-galactosidase activity relative to DMSO) ([3]; 20 uM) | CMV-LACZ in Myotubes (β-galactosidase activity relative to DMSO) ([3]; 40 uM) | other results
CC1(C)Cc2c(ccc3ccccc23)C(=O)N1 [MLS000525404-01] |  |  |  |  |  |  |  |  |  |  |  |  |  |  |  |  |  |  |  |  | fold induction at 0.5 µM ([1]; 0.5 uM): 1; fold induction at 1 µM ([1]; 1 uM): 1.08; fold induction at 5 µM ([1]; 5 uM): 1.12; fold induction at 10 µM ([1]; 10 uM): 1.28; fold induction at 20 µM ([1]; 20 uM): 1.46; fold induction at 40 µM ([1]; 40 uM): 1.79; fold induction at 0.5 µM ([2]; 0.5 uM): 1.04; fold induction at 1 µM ([2]; 1 uM): 1.04; fold induction at 5 µM ([2]; 5 uM): 1.12; fold induction at 10 µM ([2]; 10 uM): 1.09; fold induction at 20 µM ([2]; 20 uM): 1.19; fold induction at 40 µM ([2]; 40 uM): 1.35; fold induction at 5 µM ([3]; Mus musculus, C2C12, read-out: CMV-LACZ in Myotubes, signal relative to DMSO, 5 uM, C2C12 CMV-LacZ myotubes, fold relative to DMSO): 0.76; fold induction at 10 µM ([3]; Mus musculus, C2C12, read-out: CMV-LACZ in Myotubes, signal relative to DMSO, 10 uM, C2C12 CMV-LacZ myotubes, fold relative to DMSO): 0.873; fold induction at 20 µM ([3]; Mus musculus, C2C12, read-out: CMV-LACZ in Myotubes, signal relative to DMSO, 20 uM, C2C12 CMV-LacZ myotubes, fold relative to DMSO): 0.841; fold induction at 40 µM ([3]; Mus musculus, C2C12, read-out: CMV-LACZ in Myotubes, signal relative to DMSO, 40 uM, C2C12 CMV-LacZ myotubes, fold relative to DMSO): 0.75
Cc1ccc(C2=C(CC(=O)O)C(=O)CC2)cc1 [MLS000553673-01] | 1.009 | 0.8952 | 1.038 | 1.0007 | 0.9043 | 0.8892 | 0.8749 | 0.8923 | 1.304 | 1.161 | 1.088 | 1.134 | 0.8021 | 0.9603 | 1.005 | 0.9127 |  |  |  |  | 
Cc1nc2c(cnn2-c2ccccc2)c(=O)n1/N=C/c1ccccc1 [MLS000860538-01] |  |  |  |  |  |  |  |  |  |  |  |  | 1.001 | 0.9613 | 1.017 | 0.9667 |  |  |  |  | Burkin Assay in Myoblasts, signal relative to DMSO ([1]; 0.5 uM): 1.02; Burkin Assay in Myoblasts, signal relative to DMSO ([1]; 1 uM): 1.033; Burkin Assay in Myoblasts, signal relative to DMSO ([1]; 5 uM): 1.078; Burkin Assay in Myoblasts, signal relative to DMSO ([1]; 10 uM): 1.115; Burkin Assay in Myoblasts, signal relative to DMSO ([1]; 20 uM): 0.958; Burkin Assay in Myoblasts, signal relative to DMSO ([1]; 40 uM): 0.9783; Burkin Assay in Myotubes, α7 integrin LacZ reporter signal relative to DMSO ([2]; 0.5 uM): 0.985; Burkin Assay in Myotubes, α7 integrin LacZ reporter signal relative to DMSO ([2]; 1 uM): 1.102; Burkin Assay in Myotubes, α7 integrin LacZ reporter signal relative to DMSO ([2]; 5 uM): 1.319; Burkin Assay in Myotubes, α7 integrin LacZ reporter signal relative to DMSO ([2]; 10 uM): 1.412; Burkin Assay in Myotubes, α7 integrin LacZ reporter signal relative to DMSO ([2]; 20 uM): 0.9635; Burkin Assay in Myotubes, α7 integrin LacZ reporter signal relative to DMSO ([2]; 40 uM): 0.9403
CNC(=O)/C(=C\c1cccc(Oc2ccccc2)c1)NC(=O)c1ccccc1 [MLS000389677-01] |  |  |  |  |  |  |  |  |  |  |  |  | 0.8142 | 0.7418 | 1.019 | 0.761 |  |  |  |  | Burkin Assay in Myoblasts, signal relative to DMSO ([1]; 0.5 uM): 0.5325; Burkin Assay in Myoblasts, signal relative to DMSO ([1]; 1 uM): 0.8831; Burkin Assay in Myoblasts, signal relative to DMSO ([1]; 5 uM): 0.8426; Burkin Assay in Myoblasts, signal relative to DMSO ([1]; 10 uM): 0.7976; Burkin Assay in Myoblasts, signal relative to DMSO ([1]; 20 uM): 0.6619; Burkin Assay in Myoblasts, signal relative to DMSO ([1]; 40 uM): 0.6089; Burkin Assay in Myotubes, α7 integrin LacZ reporter signal relative to DMSO ([2]; 0.5 uM): 1.005; Burkin Assay in Myotubes, α7 integrin LacZ reporter signal relative to DMSO ([2]; 1 uM): 0.9156; Burkin Assay in Myotubes, α7 integrin LacZ reporter signal relative to DMSO ([2]; 5 uM): 1.109; Burkin Assay in Myotubes, α7 integrin LacZ reporter signal relative to DMSO ([2]; 10 uM): 0.9956; Burkin Assay in Myotubes, α7 integrin LacZ reporter signal relative to DMSO ([2]; 20 uM): 0.6421; Burkin Assay in Myotubes, α7 integrin LacZ reporter signal relative to DMSO ([2]; 40 uM): 0.953
CC(=O)c1cccc(NC(=O)C(=O)Nc2cccc3ccccc23)c1 [MLS000765108-01] |  |  |  |  |  |  |  |  |  |  |  |  |  |  |  |  | 1.177 | 1.099 | 0.9927 | 0.97 | fold induction at 0.5 µM ([1]; 0.5 uM): 1.17; fold induction at 1 µM ([1]; 1 uM): 1.12; fold induction at 5 µM ([1]; 5 uM): 1.2; fold induction at 10 µM ([1]; 10 uM): 1.11; fold induction at 20 µM ([1]; 20 uM): 1.04; fold induction at 40 µM ([1]; 40 uM): 1.03; fold induction at 0.5 µM ([2]; 0.5 uM): 0.872; fold induction at 1 µM ([2]; 1 uM): 1.02; fold induction at 5 µM ([2]; 5 uM): 1.06; fold induction at 10 µM ([2]; 10 uM): 0.609; fold induction at 20 µM ([2]; 20 uM): 0.922; fold induction at 40 µM ([2]; 40 uM): 0.707
C[C@H]1CNC(=O)c2c(C(=O)Nc3ccc(CNC(=O)OC(C)(C)C)cc3)ncn21 [MLS003126425-01] | 1.146 | 1.1398 | 1.282 | 1.254 | 1.13 | 0.4401 | 1.104 | 1.203 | 1.422 | 1.6782 | 0.7372 | 0.5208 |  |  |  |  | 1.354 | 0.8902 | 0.743 | 0.7123 | 
COCCN1C=C(C(=O)OC)C(c2ccccc2Cl)C(C(=O)OC)=C1 [MLS000718886-01] | 1.052 | 0.9394 | 1.087 | 0.9661 | 0.9124 | 0.8139 | 0.9819 | 0.9591 | 1.068 | 0.9981 | 0.938 | 0.9785 |  |  |  |  | 0.9787 | 0.9804 | 0.8798 | 0.8355 | 
